In patent publication US20250216399A1, “NONSPECIFIC REACTION INHIBITOR” (PHC CORPORATION, priority 2022, published 2025):
Values belong to the molecule of their own block, whether it stands above or below them. Ends that are not written are not given here. PEG 20 kDa = 20 kDa PEG attached through the N-terminal amino group; l = locked nucleic acid (LNA); {C6NH2} = Amino C6 linker; d = 2'-deoxy (DNA); r = 2'-OH (RNA); f = 2'-fluoro

Assays:
human IgA = assay: Reaction inhibitory effect on human IgA, Bio-Layer Interferometry (Octet R2), anti-human IgA antibody and human IgA; type: binding; details: for Response: human IgA, not added 2.1381
Experimental: (§1) As a model system to confirm the non-specific inhibitory effect, an anti-human IgG antibody and human IgG, or an anti-human IgA antibody and human IgA were used, and the reaction inhibitory effect on the IgG-binding peptide or the IgA-binding peptide with smaller molecular weights than antibody fragments, with or without PEG modification, was confirmed.
(§2) The measurements were performed using Bio-Layer Interferometry (BLI) using Octet(trademark) R2 (manufactured by SARTORIUS), which was a biomolecular interaction analysis system. The basic principles of the Bio-Layer Interferometry are briefly explained below. When light of a specific wavelength is projected onto a layer of biomolecules fixed on the surface of a sensor chip, the light is reflected from both the surface of the biomolecular layer and the internal reference layer, resulting in an optical interference wave. When molecules in the measurement sample bind to the biomolecules on the surface of the sensor chip, the thickness of the layer at the tip of the sensor increases, causing a wavelength shift in the interference wave. By measuring this change in wavelength shift, it is possible to quantify and kinetically analyze in real time the number of molecules that bind to the biomolecules immobilized on the sensor chip surface. In this Example, the test sample and a non-specific reaction inhibitor were allowed to coexist in the measurement sample, and human IgG or human IgA was absorbed in the sample solution. The measurements were carried out according to the operating manual attached to the OctetR2.
(§3) As an antibody solution, an anti-human IgA polyclonal rabbit antibody (manufactured by Dako) was diluted with PBS(−) to 25 μg/mL to prepare an anti-human IgA antibody solution. As a sample solution, the test sample was human IgA adjusted to 250 μg/mL in PBS(−), and to 20 μL of this test sample, the IgA-binding peptide or the IgA-binding peptide modified with 20 kDa PEG was added to a final concentration of 25 μg/mL or 50 μg/mL, respectively, and the total volume was adjusted to 200 μL to prepare the R1.
Measurements using OctetR2 were performed in the same manner as for confirming the reaction inhibitory effect on human IgG.

[1] = system: non-specific reaction substance (IgG) of sample A, human plasma; assay: Non-specific reaction inhibitory effect, Bio-Layer Interferometry, sample A (human plasma) against anti-TAT antibody; type: binding
Experimental: The measurement was carried out under the same assay conditions as described in Example 2. In this Example, sample A and a non-specific reaction inhibitor were allowed to coexist in the measurement sample, and the non-specific reaction substances were absorbed in the sample solution.
The antibody solution used was an anti-TAT antibody solution prepared by diluting the anti-TAT antibody used in the second reagent (hereinafter referred to as R2) of LPIA Genesis TAT, which was characterized by containing latex particles to which a monoclonal antibody with specific binding ability to TAT was immobilized, with PBS(−) to a concentration of 25 μg/mL. The sample solution was prepared by adding a final concentration of 25 μg/mL or 50 μg/mL of IgG-binding peptide or 20 kDa PEG-modified IgG-binding peptide as a non-specific reaction inhibitor to 20 μL of the test sample diluted 10-fold with PBS(−), and adjusting the total volume to 200 μL with R1.
Using the same assay conditions as those described in Example 3, the non-specific reaction inhibitory effects of the PEG-modified peptides described in Examples 2 and 3 and the prepared PEG-modified antibody fragment were compared. The amounts of non-specific reaction inhibitor added were 25 μg/mL, 50 μg/mL, 100 μg/mL, 200 μg/mL, or 400 μg/mL, and the test sample was the same as sample A in Example 3.
The assay was carried out under the same conditions as described in Example 3. As non-specific reaction inhibitors, sample solutions were prepared to which PEG-modified peptides chemically modified with 5 kDa, 10 kDa, 20 kDa, and 30 kDa PEG were added, and the non-specific reaction inhibitory effect of each was confirmed. The amounts of non-specific reaction inhibitors added were 5 μg/mL, 10 μg/mL, or 20 μg/mL, and the test sample was the same as Sample A in Examples 3 and 4.

human IgG [2] = assay: Reaction inhibitory effect on human IgG, Bio-Layer Interferometry (Octet R2), anti-human IgG antibody and human IgG; type: binding; details: for Response: human IgG, not added 6.6462
Experimental: as §1, §2
as §3, with “IgG” for “IgA”, “1 mg/mL” for “250 μg/mL”, “IgG-binding” for “IgA-binding”, “first reagent (hereinafter referred to as R1) of LPIA Genesis TAT (manufactured by LSI Medience Corporation), which was a thrombin-antithrombin III complex (hereinafter referred to as TAT) measurement reagent.” for “R1.”
The sample solution and the anti-human IgG antibody solution were added to the designated wells of a 96-well black plate (manufactured by Greiner Bio-One) at 200 μL per well. To the baseline, dissociation and washing wells, 200 μL of PBS(−) was added. This plate and a biosensor (Biosensor/ProL: manufactured by SARTRIUS) were placed in the designated positions of the OctetR2. After operating the OctetR2 under the conditions shown in Table 1 below and acquiring data, the wavelength shift change (Response) was calculated using the analysis software included with the OctetR2. The measurements were carried out at a temperature of 30° C.

[3] = system: non-specific reaction substances of sample A, human plasma; assay: Non-specific inhibitory effect in latex agglutination method on automatic analyzer STACIA (LPIA Genesis TAT)
Experimental: The non-specific inhibitory effect of the IgG-binding peptide and PEG-modified IgG-binding peptide used in Example 2 was confirmed by the latex agglutination method.
The measurements were performed using automated operation of an automatic analyzer, STACIA (manufactured by LSI Medience Corporation). In the STACIA measurement, two main operations were carried out. In the first operation, the sample to be measured was diluted with R1 and heated at 37° C. for 3.5 minutes. In the second operation, R2 was added to the reaction solution and the mixture was incubated at 37° C. for 6 minutes to induce latex agglutination. By optically monitoring the agglutination reaction, the amount of TAT or non-specific reaction substances in the samples to be measured was quantified. In this Example, the non-specific reaction inhibitor was added to R1 so that the concentration after sample addition was 0.05 mg/mL or 0.1 mg/mL, and non-specific reaction substances were absorbed during the first operation. […] The mixture ratio of the measurement sample, R1, and R2 was 20 μL:90 μL:90 μL. Latex agglutination was detected at a wavelength of 700 nm. The measured values were calculated by comparing the absorbance with a calibration curve obtained by measuring TAT of known concentrations. The test sample used was the same as sample A used in Examples 3 to 5.

human IgG [4] = assay: Reaction inhibitory effect of IgG-binding nucleic acid aptamer on anti-human IgG antibody and human IgG, Bio-Layer Interferometry; details: 0.3 mg/mL; not added 7.9093
Experimental: For nucleic acid aptamers, the reaction inhibitory effect with or without PEG modification was confirmed using a model system to confirm the non-specific inhibitory effect in the same manner as in Example 2.
The test sample and measurements were performed under the same assay conditions as in Example 2. In this Example, the test sample and a non-specific reaction inhibitor were allowed to coexist in the measurement sample, and human IgG was absorbed in the sample solution. The measurements were carried out according to the operating manual attached to the OctetR2.
Anti-human IgG polyclonal rabbit antibody (manufactured by Dako) was diluted with PBS(−) to 25 μg/mL to prepare an anti-human IgG antibody solution. The sample solution used was human IgG at 1 mg/mL in PBS(−), with 20 μL of this test sample, and either the IgG-binding nucleic acid aptamer or the IgG-binding nucleic acid aptamer modified with 20 kDa PEG added to a final concentration of 0.3 mg/mL, and then prepared with reaction buffer (145 mmol/L NaCl, 5.4 mmol/L KCl, 0.8 mmol/L MgCl2, 1.8 mmol/L CaCl2, 20 mmol/L Tris (pH 7.6), 0.05% Tween 20) to make a total volume of 200 μL.

[5] = system: human IgG (polyclonal immunoglobulin G) (Homo sapiens); assay: BLI; details: upper case RNA, lower case DNA; 2'-F at U6, U9, C20, U21; LNA at A18; 5' amino C6 linker conjugated to 20 kDa PEG (Jenkem ME); response of IgG on immobilised anti-human IgG antibody with 0.3 mg/mL PEG-aptamer (7.9093 nm without inhibitor); indirect, inhibition of IgG-antibody reaction …
human IgA (human) [6] = assay: BLI (Octet R2) competition: human IgA on immobilised anti-human IgA antibody with 25 µg/mL of the peptide
human IgA (human) [7] = assay: BLI (Octet R2) competition: human IgA on immobilised anti-human IgA antibody with 50 µg/mL of the peptide
[8] = amount added 25 μg/mL, not added 5.7733
[9] = amount added 50 μg/mL, not added 5.7733
[10] = amount added 0.05 mg/mL, not added 32.01
[11] = amount added 0.1 mg/mL, not added 27.17

Molecule: IgA-binding peptide: human IgA-binding peptide of approximately 1.8 kDa, amino acid sequence HMVCLSYRGRPVCFSL (SEQ ID NO: 2), reported for purification of human IgA [reference compound]
- Response (human IgA; amount added 25 μg/mL): 2.1805 nm
- Response (human IgA; amount added 50 μg/mL): 2.2263 nm

Molecule: PEG-modified IgG-binding peptide: IgG-binding peptide (SEQ ID NO: 1) with one molecule of 20 kDa PEG attached via the N-terminal amino group ({PEG 20 kDa}-DCAWHLGELVWCT; cysteine pairing not given here)
- effect in suppressing the non-specific reaction compared with the unmodified peptide [1]: greater effect in suppressing the non-specific reaction than the unmodified peptide
- effect on inhibiting non-specific reactions compared with PEG-modified antibody fragment ([1]; added in equal amounts): greater effect on inhibiting non-specific reactions than the PEG-modified antibody fragment
- Response ([1]; amount added 5 μg/mL, not added 6.0114): 5.5469 nm
- Response ([1]; amount added 10 μg/mL, not added 6.0114): 5.0054 nm
- Response ([1]; amount added 20 μg/mL, not added 6.0114): 3.8339 nm
- Response [1, 8]: 3.0487 nm
- Response [1, 9]: 2.9829 nm
- Response ([1]; amount added 100 μg/mL, not added 5.7733): 3.1926 nm
- Response ([1]; amount added 200 μg/mL, not added 6.0744): 2.8092 nm
- Response ([1]; amount added 400 μg/mL, not added 6.0744): 3.0917 nm
- Response (human IgG [2]; amount added 25 μg/mL): 3.1484 nm
- Response (human IgG [2]; amount added 50 μg/mL): 2.6181 nm
- reaction inhibitory effect compared with the unmodified peptide (human IgG [2]; anti-human IgG antibody and human IgG): stronger reaction inhibitory effect
- Sample A measured value (TAT calibration curve) [3, 10]: 10.84 ng/mL
- Sample A measured value (TAT calibration curve) [3, 11]: 6.25 ng/mL

Molecule: IgG-binding nucleic acid aptamer: human IgG-binding nucleic acid aptamer of approximately 7.5 kDa, N(6)_ggAGGU(F)GcU(F)ccgaaaGGA(L)aC(F)U(F)cc (DNA GGAGGUGCUCCGAAAGGAACUCC; sugars from the 5' end ddrrrfrdfddddddrrldffdd, 5' {C6NH2}, backbone and methylation of C not given here; further chemistry not fully specified)
- Human IgG (Response) (human IgG [4]): 7.6691 nm

Molecule: PEG-modified IgA-binding peptide: IgA-binding peptide (SEQ ID NO: 2) with one molecule of 20 kDa PEG attached via the N-terminal amino group
- Response (human IgA; amount added 25 μg/mL): 1.6061 nm
- Response (human IgA; amount added 50 μg/mL): 1.5374 nm
- reaction inhibitory effect compared with the unmodified peptide (human IgA; anti-human IgA antibody and human IgA): stronger reaction inhibitory effect

Molecule: IgG-binding peptide: human IgG-binding peptide of approximately 1.5 kDa, amino acid sequence DCAWHLGELVWCT (SEQ ID NO: 1), known for purification of human IgG (human IgG binding peptide) [reference compound]
- Response [1, 8]: 6.5522 nm
- Response [1, 9]: 6.6331 nm
- Response (human IgG [2]; amount added 25 μg/mL): 7.4221 nm
- Response (human IgG [2]; amount added 50 μg/mL): 7.6293 nm
- Sample A measured value (TAT calibration curve) [3, 10]: 37.7 ng/mL
- Sample A measured value (TAT calibration curve) [3, 11]: 42.85 ng/mL

Molecule: GGAGGUGCUCCGAAAGGAACUCC [PEG-modified IgG-binding nucleic acid aptamer]
- activity [5]: 4.96 nm

- Response [nm] (human IgA (human) [6]): 2.18 nm
- Response [nm] (human IgA (human) [7]): 2.23 nm
B1: human IgA-binding peptide of approximately 1.8 kDa (peptide)
peptide: HMVCLSYRGRPVCFSL

- Response [nm] (human IgA (human) [6]): 1.61 nm
- Response [nm] (human IgA (human) [7]): 1.54 nm
B2: IgA-binding peptide modified with 20 kDa PEG (peptide)
peptide: HMVCLSYRGRPVCFSL
modifications: one molecule of 20 kDa PEG (succinimide-activated) attached via the amino group at the N-terminus
